Source: PMC6470953, “Symmetrical Modification of Minimized Dermaseptins to Extend the Spectrum of Antimicrobials with Endotoxin Neutralization Potency” (International Journal of Molecular Sciences, 2019)
Like-named read-outs stand apart in the source and are kept apart here. Where no end group is shown, it is not given here.

How the values were obtained:
E. coli ATCC25922 [1] = assay: MIC assay, E. coli ATCC25922; type: cell-based; details: two-fold dilution in 96-well plates, MHB, 2-7 × 10^5 CFU/mL, 18–24 h, 37 °C, three replicates on at least two occasions
Protocol: (§1) MIC measurements were performed in 96-well plates. The peptides were dissolved in 0.2% bovine serum albumin and 0.01% acetic acid, and an appropriate broth was subjected to a series of two-fold dilutions. The final concentration of microbial suspensions was from 2 × 10^5 to 7 × 10^5 colony forming units (CFU)∙mL^−1. Key parameters were volume (50 μL bacterial suspension + 50 μL peptide solution), incubating time (18–24 h), and temperature (37 °C). Each test was performed in three replicates on at least two independent occasions. The Mueller Hilton broth (MHB) (AoBoX, Shanghai, China) without or with microbial cells was regarded as the negative control or positive control, respectively. MICs were recorded at the lowest peptide concentration without visible turbidity and spectrophotometrically by measuring the optical density (OD) at 492 nm (Tecan, Salzburg, Austria).

E. coli UB1005 [2] = assay: MIC assay, E. coli UB1005; type: cell-based; details: two-fold dilution in 96-well plates, MHB, 2-7 × 10^5 CFU/mL, 18–24 h, 37 °C
Protocol: as §1

P. aeruginosa ATCC 27853 [3] = assay: MIC assay, P. aeruginosa ATCC 27853; type: cell-based; details: two-fold dilution in 96-well plates, MHB, 2-7 × 10^5 CFU/mL, 18–24 h, 37 °C
Protocol: as §1

[4] = system: S. typhimurium ATCC 14028; assay: MIC assay, S. typhimurium ATCC 14028; type: cell-based; details: two-fold dilution in 96-well plates, MHB, 2-7 × 10^5 CFU/mL, 18–24 h, 37 °C
Protocol: as §1

S. pullorum C79-13 [5] = assay: MIC assay, S. pullorum C79-13; type: cell-based; details: two-fold dilution in 96-well plates, MHB, 2-7 × 10^5 CFU/mL, 18–24 h, 37 °C
Protocol: as §1

S. aureus ATCC 29213 [6] = assay: MIC assay, S. aureus ATCC 29213; type: cell-based; details: two-fold dilution in 96-well plates, MHB, 2-7 × 10^5 CFU/mL, 18–24 h, 37 °C
Protocol: as §1

[7] = system: S. epidermidis ATCC 12228; assay: MIC assay, S. epidermidis ATCC 12228; type: cell-based; details: two-fold dilution in 96-well plates, MHB, 2-7 × 10^5 CFU/mL, 18–24 h, 37 °C
Protocol: as §1

S. faecalis ATCC 29212 [8] = assay: MIC assay, S. faecalis ATCC 29212; type: cell-based; details: two-fold dilution in 96-well plates, MHB, 2-7 × 10^5 CFU/mL, 18–24 h, 37 °C
Protocol: as §1

B. subtilis CMCC 63501 [9] = assay: MIC assay, B. subtilis CMCC 63501; type: cell-based; details: two-fold dilution in 96-well plates, MHB, 2-7 × 10^5 CFU/mL, 18–24 h, 37 °C
Protocol: as §1

[10] = system: human red blood cells (hRBCs); assay: Hemolytic activity assay; type: cell-based; details: lowest peptide concentration that induces 5% hemolysis; hRBCs in PBS pH 7.4, 1 h, 37 °C, OD570
Protocol: Hemolytic activity measurements were performed to evaluate the effect of peptides on hemoglobin release levels by erythrocyte lysis. The experimental protocol was reviewed and approved by the ethics committee of the Northeast Agricultural University Hospital, and the experimental method was carried out in accordance with the approved guidelines and regulations. A total of 1 mL of fresh hRBCs was collected and diluted 10-fold with PBS (pH 7.4). A quantity of 50 μL of the hRBCs solution was incubated with 50 μL of serially diluted peptides dissolved in PBS for 1 h at 37 °C. hRBC suspension treated with 0.1% Triton X-100 was employed as a positive control and an untreated hRBC suspension was used as a negative control. A total of 50 μL of the supernatant was collected from the mixture after centrifugation (1000g, 5 min, 4 °C) and transferred to a new 96-well microplate. The percent hemolysis was calculated using the following equation: Hemolysis (%) = [(OD570 of the treated sample — OD570 of the negative control)/(OD570 of the positive control — OD570 of the negative control)] × 100%.

[11] = system: murine macrophage cell line (RAW264.7); assay: MTT cytotoxicity assay, RAW264.7; type: cell-based; details: RAW264.7, peptide 64 μM, 18–24 h, 37 °C, OD 570 nm, n = 3
Protocol: (§2) The Roswell Park Memorial Institute-1640 (RPMI-1640) (Invitrogen, Carlsbad, CA, USA) and Dulbecco’s modified Eagle’s medium-high glucose (DMEM) (Gibco, China) were supplemented with 100 μg∙mL^−1 streptomycin sulfate, 100 U∙mL^−1 penicillin, and 10% (v/v) fetal bovine serum (Hyclone, Logan, UT, USA). These were used to culture the RAW264.7 and HEK293T cells, respectively. The peptides were added to cell cultures (1.0–2.0 × 10^4 cells/well) at different final concentrations (1–64 µM) in 96-well plates for 18–24 h at 37 °C in 5% CO2, and 3-(4,5-dimethylthiazol-2-yl)-2,5-diphenyltetrazolium bromide (MTT) (50 µL, 0.5 mg∙mL^−1) was injected and incubated with cell cultures for 4 h at 37 °C. Finally, the centrifuged cells without the supernatants were mixed with 150 µL of dimethyl sulfoxide to dissolve the formazan crystals that formed. The optical density (OD) was recorded by a microplate reader (Tecan, Salzburg, Austria) at 570 nm.

[12] = system: human embryonic kidney cells (HEK293T); assay: MTT cytotoxicity assay, HEK293T; type: cell-based; details: peptide 64 μM, 18–24 h, 37 °C, OD 570 nm, n = 3
Protocol: as §2

B. subtilis CMCC 63501 [13] = details: cited from earlier work
Text: (§3) Table 2 MICs and therapeutic index of the peptides. | column: KL4A6 [9]

E. coli ATCC25922 [14] = details: cited from earlier work
Text: as §3

E. coli UB1005 [15] = details: cited from earlier work
Text: as §3

[16] = system: Gram-negative and Gram-positive bacteria; details: MIC >128 μM counted as 256 μM; cited from earlier work
Text: as §3

P. aeruginosa ATCC 27853 [17] = details: cited from earlier work
Text: as §3

S. aureus ATCC 29213 [18] = details: cited from earlier work
Text: as §3

[19] = system: S. epidermidis ATCC 12228; details: cited from earlier work
Text: as §3

S. faecalis ATCC 29212 [20] = details: cited from earlier work
Text: as §3

S. pullorum C79-13 [21] = details: cited from earlier work
Text: as §3

[22] = system: S. typhimurium ATCC 14028; details: cited from earlier work
Text: as §3

[23] = system: human red blood cells (hRBCs); details: lowest peptide concentration that induces 5% hemolysis; cited from earlier work
Text: as §3

[24] = system: Gram-negative and Gram-positive bacteria; assay: Geometric mean of MIC values over the bacteria tested; type: cell-based; details: MIC >128 μM counted as 256 μM
Protocol: as §1

E. coli ATCC 25922 = assay: FACScan membrane integrity analysis (propidium iodide); type: cell-based; details: E. coli ATCC 25922, 10 μg/mL PI, 4 °C, 30 min, flow cytometry
Protocol: The membrane integrity measurements were performed with a FACScan instrument (Bectone-Dickinson, San Jose, CA, USA) by using a modified method as described previously. […] As a control, bacteria were exposed to PBS without the peptide. The gate (P1) was defined based on the FSC and SSC properties of E. coli. The FSC threshold was appropriately raised to include the large cell events in the sample and excluded the debris population. Data acquisition was performed using […] Software (Becton Dickinson, San Jose, CA, USA) with a stopping gate of 10,000 total events. Observations were repeated three times at a laser excitation wavelength of 488 nm. Based on the ability of flow cytometers to provide accurate quantification of cell numbers, the counts of PI-positive cells were measured for each peptide.

[25] = LPS binding, BODIPY-TR cadaverine displacement assay; set-up: species or system E. coli; details: LPS 100 ng/mL, peptide 1.25–40 μg/mL, 1 h, 37 °C, Tris pH 7.4
Protocol: BODIPY-TR-cadaverine fluorescent dye (BC, Sigma, USA) was used to determine the LPS neutralizing activity of the peptides. A total of 100 ng/mL LPS from E. coli O111:B4 was incubated with 5 μg/mL BC in Tris buffer (50 mM, pH 7.4) for 4 h at room temperature. The peptides were serially diluted to different concentrations (1.25–40 μg/mL) in a 96-well plate and incubated with an equal volume of the LPS-probe mixture for 1 h at 37 °C. The fluorescence was recorded (excitation λ = 580 nm, emission λ = 620 nm) with a spectrofluorophotometer (the Infinite 200 pro, Tecan, China). The values were converted to %ΔF (AU) using the following equation:%ΔF (AU) = (Fobs − F0) / (F100 − F0) × 100 where F0 is the initial fluorescence of BC with LPS; F100 is the BC fluorescence with LPS cells upon the addition of 10 μg∙mL^−1 polymyxin B (the positive control); and Fobs is the observed fluorescence at a given peptide concentration.

interleukin-6(IL-6) = assay: LPS-induced IL-6 gene expression (qRT-PCR) in RAW264.7; type: cell-based, murine; details: RAW264.7, 100 ng/mL LPS, peptide 10 μg/mL, n = 3
Protocol: (§4) The RAW264.7 cell culture was prepared using the same method as the cytotoxicity assay. The cells were seeded in 12 wells plates at a given density (5 × 10^5 cells per well); after overnight culture, 100 ng·mL^−1 LPS from E. coli 0111:B4 was added to stimulate the generation of cytokines in the presence or absence of the peptides at concentrations of 10 μg·mL^−1. The mRNA levels of IL-6 and IL-1β were determined by quantitative real-time PCR(qRT-PCR) as previously described. The total RNA was isolated from the RAW264.7 cells using TRIzol according to the manufacturer’s instructions. Total RNA (1 µg) was reverse transcribed by the M-MLV Reverse Transcriptase (Thermo scientific, Waltham, MA, USA). The reactions were incubated in chronological arrangement with the following parameters: at 25 °C for 20 min, at 42 °C for 60 min, and at 70 °C for 10 min. The obtained cDNA samples were determined by qRT-PCR with SYBR green I fluorescence dye (Takara Bio Inc., Kusatsu, Japan). Relative quantifications of the mRNA expression of the target genes were calculated through the comparative threshold cycle number for each sample (2^−ΔΔCT). Gene expression was normalized to the corresponding β-actin level. The primers for qRT-PCR in this study are shown below: IL-6-F: […]; IL-6-R: […]; IL-1β-F: […]; and IL-1β-R: […].

interleukin-1β(IL-1β) = assay: LPS-induced IL-1β gene expression (qRT-PCR) in RAW264.7; type: cell-based, murine; details: RAW264.7, 100 ng/mL LPS, peptide 10 μg/mL, n = 3
Protocol: as §4

Compound	MIC (E. coli ATCC25922 [1]) [µM]	MIC (E. coli UB1005 [2]) [µM]	MIC (P. aeruginosa ATCC 27853 [3]) [µM]	MIC [4] [µM]	MIC (S. pullorum C79-13 [5]) [µM]	MIC (S. aureus ATCC 29213 [6]) [µM]	MIC [7] [µM]	MIC (S. faecalis ATCC 29212 [8]) [µM]	MIC (B. subtilis CMCC 63501 [9]) [µM]	MHC5 (minimum hemolysis concentration 5%) [10] [µM]	cell survival rate [11] [%]	cell survival rate [12] [%]	other results
WIKAAAKAAAKIW-NH2 [WI]	8	8	32	32	8	32	32	32	8	256	100	96	
WVKAAAKAAAKVW-NH2 [WV]	32	>128	>128	>128	64	>128	>128	64	>128	>256	93	93	
LLKAAAKAAAKLL-NH2 [KL4A6]													MIC (B. subtilis CMCC 63501 [13]): 32 µM; MIC (E. coli ATCC25922 [14]): 2 µM; MIC (E. coli UB1005 [15]): 32 µM; GM (geometric mean of MIC values) [16]: 59.3 µM; MIC (P. aeruginosa ATCC 27853 [17]): >128 µM; MIC (S. aureus ATCC 29213 [18]): >128 µM; MIC [19]: 128 µM; MIC (S. faecalis ATCC 29212 [20]): 16 µM; MIC (S. pullorum C79-13 [21]): >128 µM; MIC [22]: 128 µM; MHC5 (minimum hemolysis concentration 5%) [23]: >256 µM
WFKAAAKAAAKFW-NH2 [WF]	4	4	16	32	8	8	16	32	8	256	92	91	
CC[C@H](C)[C@H](NC(=O)CN)C(=O)NCC(=O)N[C@@H](C)C(=O)N[C@H](C(=O)N[C@@H](CC(C)C)C(=O)N[C@@H](CCCCN)C(=O)N[C@H](C(=O)N[C@@H](CC(C)C)C(=O)N[C@H](C(=O)N[C@H](C(=O)NCC(=O)N[C@@H](CC(C)C)C(=O)N1CCC[C@H]1C(=O)N[C@@H](C)C(=O)N[C@@H](CC(C)C)C(=O)N[C@H](C(=O)N[C@@H](CO)C(=O)N[C@@H](Cc1c[nH]c2ccccc12)C(=O)N[C@H](C(=O)N[C@@H](CCCCN)C(=O)N[C@@H](CCCNC(=N)N)C(=O)N[C@@H](CCCCN)C(=O)N[C@@H](CCCNC(=N)N)C(=O)N[C@@H](CCC(N)=O)C(=O)N[C@@H](CCC(N)=O)C(N)=O)[C@@H](C)CC)[C@@H](C)CC)[C@@H](C)O)[C@@H](C)O)C(C)C)C(C)C [Melittin]													GM (geometric mean of MIC values) [24]: 1.3 µM; percentage of PI-positive cells (E. coli ATCC 25922; 1/2 × MIC): 50.5%; percentage of PI-positive cells (E. coli ATCC 25922; 1 × MIC): 77.5%; binding to LPS, %ΔF (AU) of BODIPY-TR cadaverine [25]: concentration-dependent increase; gene expression of IL-6 in LPS-treated cells (interleukin-6(IL-6)): markedly decreased; gene expression of IL-1β in LPS-treated cells (interleukin-1β(IL-1β)): markedly decreased
WWKAAAKAAAKWW-NH2 [WW]	2	4	8	8	2	4	4	4	4	256	63	43	
